Measurements published in patent US20220204512A1, “SUBSTITUTED FUSED BICYCLIC DERIVATIVE, PREPARATION METHOD THEREFOR, AND APPLICATION THEREOF IN MEDICINES” (Jiangsu Hengrui Medicine Co., Ltd., priority 2019, published 2022).

Legend:
[1] = molecular target: T1, ERK1 (Homo sapiens, UniProt P27361); assay: ERK1 enzyme activity test (ADP-Glo Kinase Assay); format: biochemical; details: ADP-Glo chemiluminescence
T1 construct: purchased R&D 1879-KS-010
Method: (§1) The purpose of this experiment is to detect the inhibitory ability of the compounds of the present disclosure on the ERK1 enzyme activity and to evaluate the in vitro activity of the compounds based on the IC50. The ADP-Glo™ Kinase Assay Kit was used in this experiment. The substrate was phosphorylated under the action of the enzyme and ADP was produced at the same time. The ADP-Glo reagent was added to remove the unreacted ATP in the reaction system, and the ADP produced by the reaction was detected with kinase detection reagent. In the presence of the compound, the inhibition rate of the compound was calculated by measuring the signal value.
Preparation of Enzyme and substrate: ERK1 (1879-KS-010, R&D) and substrate (AS-61777, anaspec) were prepared to 0.75 ng/p1 and 100 μM respectively in a buffer, and then the enzyme solution and the substrate solution were prepared into a mixed solution at a volume ratio of 2:1 for later use. ATP was diluted to 300 μM with buffer. The compound was dissolved in DMSO (dimethyl sulfoxide, Shanghai Titan Scientific Co., Ltd.) to prepare a stock solution with an initial concentration of 20 mM, and then Bravo was used to prepare the compound. Finally, 3 μL of a mixed solution of enzyme and substrate, and 1 μL of different concentrations of the compound (the initial concentration was 50 μM, 4-fold dilution) were added to each well of the 384-well plate, and the plate was incubated at 30° C. for 10 minutes, and finally 1 μL of 300 μM ATP solution was added to each well, and the plate was incubated at 30° C. for 2 hours. Then 5 μL of ADP-Glo was added, and the plate was incubated at 30° C. for 40 minutes. Then 10 μL of kinase detection buffer was added, and the plate was incubated at 30° C. for 40 minutes. The 384-well plate was taken out and placed in a microplate reader (BMG labtech, PHERAstar FS), and the chemiluminescence was measured by a microplate reader.
(§2) Microsoft Excel, Graphpad Prism 5 was used to process and analyze the data.

[2] = molecular target: T2, ERK2 (Homo sapiens, UniProt P28482); assay: ERK2 enzyme activity test (ADP-Glo Kinase Assay); format: biochemical; details: ADP-Glo chemiluminescence
T2 construct: purchased R&D 1879-KS-010
T2 sequence (P28482 2-360 limits assumed): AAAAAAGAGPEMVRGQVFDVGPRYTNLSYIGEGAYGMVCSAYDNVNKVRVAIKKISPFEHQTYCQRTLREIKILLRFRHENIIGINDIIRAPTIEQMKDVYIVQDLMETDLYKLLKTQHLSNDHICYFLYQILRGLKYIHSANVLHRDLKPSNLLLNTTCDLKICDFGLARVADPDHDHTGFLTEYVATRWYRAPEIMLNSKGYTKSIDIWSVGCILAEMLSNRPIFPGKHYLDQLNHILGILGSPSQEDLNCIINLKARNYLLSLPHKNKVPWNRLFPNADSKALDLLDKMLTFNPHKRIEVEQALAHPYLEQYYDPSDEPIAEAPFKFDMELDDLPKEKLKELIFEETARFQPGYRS
Method: as §1, with “the ERK2” for “the ERK1”, “enzyme activity,” for “enzyme activity”
Preparation of enzyme and substrate: ERK2 (1879-KS-010, R&D) and substrate (custom peptide, Gill Biochemical) were prepared to 0.75 ng/ml and 1500 μM in a buffer (40 mM Tris, 20 mM MgCl2, 0.1 mg/ml BSA, 50 μM DTT), and then the enzyme solution and the substrate solution were prepared into a mixed solution at a volume ratio of 2:1 for later use. ATP was diluted to 500 μM with buffer. The compound was dissolved in DMSO (dimethyl sulfoxide, Shanghai Titan Scientific Co., Ltd.) to prepare a stock solution with an initial concentration of 20 mM, and then Bravo was used to prepare the compound. Finally, 3 μL of a mixed solution of enzyme and substrate, and 1 μL substrate of different concentrations of the compound (the initial concentration is 50 μM, 4-fold dilution) were added to each well of the 384-well plate, and the plate was incubated at 30° C. for 10 minutes, and finally 1 μL 500 μM ATP solution was added to each well, and the plate was incubated at 30° C. for 2 hours. Then 5 μL of ADP-Glo was added, and the plate was incubated at 30° C. for 40 minutes. Then 10 μL of kinase detection buffer was added, and the plate was incubated at 30° C. for 40 minutes. The 384-well plate was taken out and placed in a microplate reader (BMG labtech, PHERAstar FS), and the chemiluminescence was measured by a microplate reader.
as §2

[3] = Pharmacokinetics assay in mice; format: in vivo; details: female, mouse, po, C57 mice, intragastric, 2 mg/kg, plasma
Method: Mice were used as test animals. The drug concentration in plasma at different time points was determined by LC/MS/MS method after administration of the compounds 1-P2, 2-P2, 4-P2, 6-P2, 9-P2, 10-P2 and 11-P2. The pharmacokinetic behavior of the compounds of the present disclosure was studied and evaluated in mice.
Sixty-three C57 mice (female, equally divided into seven groups) were purchased from Shanghai Jiesijie Laboratory Animal Co., LTD. (Certificate No.: SCXK(Shanghai)2013-0006).
A certain amount of the test compound was weighed, dissolved in 5% of DMSO by volume and 5% of tween 80, followed by the additon of 90% of normal saline to prepare a 0.1 mg/mL colorless, clear and transparent solution.
After an overnight fast, C57 mice were intragastrically administered the test compound at an administration dose of 2 mg/kg and an administration volume of 0.2 ml/10 g.
The mice were intragastrically administered the test compounds. 0.1 ml of blood was taken before the administration and at 0.25, 0.5, 1.0, 2.0, 4.0, 6.0, 8.0, 11.0 and 24.0 hours after the administration. The samples were stored in heparinized tubes, and centrifuged for 10 minutes at 3500 rpm to separate the blood plasma. The plasma samples were stored at −20° C.
The content of the test compound in the plasma of mice after intragastrical administration of the test compound at different concentrations was determined: 25 μL of […] plasma at each time point after the administration was taken, followed by the addition of 50 μL of the internal standard camptothecin solution (100ng/mL) and 200 μL of acetonitrile. The resulting solution was vortex-mixed for 5 minutes, and centrifuged for 10 minutes (4000 rpm). 4 μL of the supernatant was taken from the plasma samples for LC/MS/MS analysis.

[4] = tested on: Colo205 cells; assay: In vitro proliferation inhibition test on Colo205 tumor cells (CellTiter-Glo); format: cell-based; details: Homo sapiens, COLO 205, 72 h; Colo205 cell proliferation, 3 days of culture, CTG
Method: The purpose of this experiment is to test the inhibitory activity of the compounds of the present disclosure on the proliferation of Colo205 cells (CCL-222, ATCC) in vitro. The cells were treated in vitro with different concentrations of the compounds. After 3 days of culture, the cell proliferation was tested with CTG (CellTiter-Glo® Luminescent Cell Viability Assay, Promega, Catalog No. G7573) reagent, and the in vitro activity of the compounds was evaluated according to the ICso value.
In the following, the in vitro proliferation inhibition test method of Colo205 cells is taken as an example to illustrate the method for testing the in vitro proliferation inhibitory activity of the compounds of the present disclosure on tumor cells. This method is also applicable to, but not limited to, the in vitro proliferation inhibitory activity test on other tumor cells.
Colo205 cells were digested, centrifuged and then resuspended. The single cell suspension was mixed well, and the density of viable cells was adjusted to 5.0×10^4 cells/ml with cell culture medium (RPMI1640+2% FBS), and 95 μL/well was added to a 96-well cell culture plate. Only 100 μL medium was added to the peripheral wells of the 96-well plate. The culture plate was incubated in an incubator for 24 hours (37° C., 5% CO2).
The compound was dissolved in DMSO (dimethyl sulfoxide, Shanghai Titan Scientific Co., Ltd.) and prepared as a stock solution with an initial concentration of 20 mM. The initial concentration of the small molecule compound was 2 mM, and then 4-fold diluted into 9 points, and the 10th point was DMSO. Another 96-well plate was taken, and 90 μL of cell culture medium (RPMI1640+2% FBS) was added to each well. Then 10 μL of different concentrations of the test sample was added to each well. The mixture was mixed well, and then 5μL of different concentrations of the test sample was added to the cell culture plate. Each sample has two duplicate holes. The culture plate was incubated in the incubator for 3 days (37° C., 5% CO2). The 96-well cell culture plate was taken out. 50 μL solution of CTG was added to each well, and the plate was incubated for 10 minutes at room temperature. In a microplate reader (BMG labtech, PHERAstar FS), chemiluminescence was measured with the microplate reader.
as §2

T1 sequence (P27361 whole entry): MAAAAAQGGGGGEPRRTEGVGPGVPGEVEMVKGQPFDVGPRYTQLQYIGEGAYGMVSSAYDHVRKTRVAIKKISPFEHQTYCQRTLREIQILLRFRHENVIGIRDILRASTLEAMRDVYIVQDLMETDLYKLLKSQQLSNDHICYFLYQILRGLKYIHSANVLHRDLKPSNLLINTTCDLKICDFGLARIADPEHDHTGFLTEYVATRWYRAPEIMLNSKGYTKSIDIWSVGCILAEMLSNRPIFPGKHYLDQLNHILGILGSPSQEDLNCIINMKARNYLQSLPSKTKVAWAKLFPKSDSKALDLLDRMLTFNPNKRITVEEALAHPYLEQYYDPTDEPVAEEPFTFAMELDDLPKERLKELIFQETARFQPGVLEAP

## COc1cc(F)cc([C@@H](CO)NC(=O)[C@@H](C)N2CCn3cc(-c4nc(NC5CCOCC5)ncc4Cl)nc3C2=O)c1 [Example 3-P2, (R)-2-(2-(5-Chloro-2-((tetrahydro-2H-pyran-4-yl)amino)pyrimidin-4-yl)-8-oxo-5,6-dihydroimidazo[1,2-a]pyrazin-7(8H)-yl)-N-((S)-1-(3-fluoro-5-methoxyphenyl)-2-hydroxyethyl)propanamide]
[1]
  IC50: 4.6 nM
[2]
  IC50: 1.75 nM

## COc1cc(F)cc([C@@H](CO)NC(=O)[C@@H](C)N2Cc3cc(-c4nc(NC5CCOCC5)ncc4Cl)cn3C2=O)c1 [Example 6-P2, (R)-2-(6-(5-Chloro-2-((tetrahydro-2H-pyran-4-yl)amino)pyrimidin-4-yl)-3-oxo-1H-pyrrolo[1,2-c]imidazol-2(3H)-yl)-N-((S)-1-(3-fluoro-5-methoxyphenyl)-2-hydroxyethyl)propanamide]
[3]; read-out: Apparent distribution volume Vz/F
  Vd/F: 7.74 L/kg
[3]; read-out: Area under curve AUC
  AUC: 1740 ng·h/mL
[3]; read-out: Clearance CLz/F
  CL/F: 18.9 mL/min/kg
[3]; read-out: Half-life T1/2 (converted)
  half-life: 4.74 h
[3]; read-out: Plasma concentration Cmax
  Cmax: 1310 ng/mL
[3]; read-out: Residence time MRT
  MRT: 1.39 h
[2]
  IC50: 7.5 nM

## C[C@H](C(=O)N[C@H](CO)c1cccc(Cl)c1)N1CCn2cc(-c3nc(NC4CCOCC4)ncc3Cl)cc2C1=O [Example 13-P2, (R)-2-(7-(5-Chloro-2-((tetrahydro-2H-pyran-4-yl)amino)pyrimidin-4-yl)-1-oxo-3,4-dihydropyrrolo[1,2-a]pyrazin-2(1H)-yl)-N—((S)-1-(3-chlorophenyl)-2-hydroxyethyl)propanamide]
[2]
  IC50: 2.8 nM
[4]
  IC50: 31 nM

## COc1cc(F)cc([C@@H](CO)NC(=O)[C@H](C)N2CCn3cc(-c4nc(N[C@@H](C)CO)ncc4Cl)nc3C2=O)c1 [Example 14-P1, (S)-2-(2-(5-Chloro-2-(((S)-1-hydroxypropan-2-yl)amino)pyrimidin-4-yl)-8-oxo-5,6-dihydroimidazo[1,2-a]pyrazin-7(8H)-yl)-N-((S)-1-(3-fluoro-5-methoxyphenyl)-2-hydroxyethyl)propanamide]
[2]
  IC50: 1530 nM

## COc1cc(F)cc([C@@H](CO)NC(=O)[C@@H](C)N2CCn3cc(-c4nc(N[C@@H](C)CO)ncc4Cl)nc3C2=O)c1 [Example 14-P2, (R)-2-(2-(5-Chloro-2-(((S)-1-hydroxypropan-2-yl)amino)pyrimidin-4-yl)-8-oxo-5,6-dihydroimidazo[1,2-a]pyrazin-7(8H)-yl)-N-((S)-1-(3-fluoro-5-methoxyphenyl)-2-hydroxyethyl)propanamide]
[2]
  IC50: 4.9 nM

## COc1cc(F)cc([C@@H](CO)NC(=O)[C@@H](C)N2CCn3cc(-c4nc(N[C@@H](C)CO)ncc4Cl)cc3C2=O)c1 [Example 15, (R)-2-(7-(5-Chloro-2-(((S)-1-hydroxypropan-2-yl)amino)pyrimidin-4-yl)-1-oxo-3,4-dihydropyrrolo[1,2-a]pyrazin-2(1H)-yl)-N-((S)-1-(3-fluoro-5-methoxyphenyl)-2-hydroxyethyl)propanamide]
[2]
  IC50: 28.7 nM

## C[C@H](C(=O)N[C@H](CO)c1cccc(Cl)c1)N1CCc2cc(-c3nc(NC4CCOCC4)ncc3Cl)cn2C1=O [Example 16-P2, (R)-2-(6-(5-Chloro-2-((tetrahydro-2H-pyran-4-yl)amino)pyrimidin-4-yl)-1-oxo-3,4-dihydropyrrolo[1,2-c]pyrimidin-2(1H)-yl)-N-((S)-1-(3-chlorophenyl)-2-hydroxyethyl)propanamide]
[2]
  IC50: 4.2 nM
[4]
  IC50: 54 nM

## Cc1cccc([C@@H](CO)NC(=O)[C@@H](C)N2CCn3cc(-c4ccnc(Nc5ccnn5C)n4)cc3C2=O)c1 [Example 18-P2, (R)-N-((S)-2-Hydroxy-1-(m-tolyl)ethyl)-2-(7-(2-((1-methyl-1H-pyrazol-5-yl)amino)pyrimidin-4-yl)-1-oxo-3,4-dihydropyrrolo[1,2-a]pyrazin-2(1H)-yl)propanamide]
[2]
  IC50: 5.5 nM

## Cc1cccc([C@@H](CO)NC(=O)[C@@H](C)N2CCn3cc(-c4ccnc(NC5CCOCC5)n4)cc3C2=O)c1 [Example 19-P2, (R)-N-((S)-2-Hydroxy-1-(m-tolyl)ethyl)-2-(1-oxo-7-(2-((tetrahydro-2H-pyran-4-yl)amino)pyrimidin-4-yl)-3,4-dihydropyrrolo[1,2-a]pyrazin-2(1H)-yl)propanamide]
[2]
  IC50: 6.7 nM
[4]
  IC50: 67 nM
